Measurements published in PubChem BioAssay (NCI).
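Exposure lasted 48 hours, with cells grown in 96-well plates and compounds tested at five concentrations. TGI: concentration producing complete growth inhibition.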

What was measured:
Test in all cases: DTP human tumour cell line panel, 48 h
SNB-78 CNS = test system: SNB-78 CNS
DLD-1 colon = test system: DLD-1 colon
NCI-H460 lung = test system: NCI-H460 lung
ACHN renal = test system: ACHN renal
U251 CNS = test system: U251 CNS
OVCAR-3 ovarian = test system: OVCAR-3 ovarian
LOX IMVI melanoma = test system: LOX IMVI melanoma
HL-60(TB) leukemia = test system: HL-60(TB) leukemia
CCRF-CEM leukemia = test system: CCRF-CEM leukemia
KM12 colon = test system: KM12 colon
HOP-62 NSCLC = test system: HOP-62 NSCLC
OVCAR-5 ovarian = test system: OVCAR-5 ovarian
COLO 205 colon = test system: COLO 205 colon
NCI-H522 lung = test system: NCI-H522 lung
IGROV1 ovarian = test system: IGROV1 ovarian
DMS 114 small cell lung = test system: DMS 114 small cell lung
RPMI-8226 leukemia = test system: RPMI-8226 leukemia
SNB-75 CNS = test system: SNB-75 CNS
K-562 leukemia = test system: K-562 leukemia
SF-539 CNS = test system: SF-539 CNS
SK-MEL-5 melanoma = test system: SK-MEL-5 melanoma
M19-MEL melanoma = test system: M19-MEL melanoma
SF-268 CNS = test system: SF-268 CNS
MALME-3M melanoma = test system: MALME-3M melanoma
LXFL 529 NSCLC = test system: LXFL 529 NSCLC
NCI-H23 lung = test system: NCI-H23 lung
SW-620 colon = test system: SW-620 colon
TK-10 renal = test system: TK-10 renal
EKVX NSCLC = test system: EKVX NSCLC
UO-31 renal = test system: UO-31 renal
SK-MEL-2 melanoma = test system: SK-MEL-2 melanoma
SK-OV-3 ovarian = test system: SK-OV-3 ovarian
RXF 393 renal = test system: RXF 393 renal
A549 NSCLC = test system: A549 NSCLC
SNB-19 CNS = test system: SNB-19 CNS
DMS 273 small cell lung = test system: DMS 273 small cell lung
HCC-2998 colon = test system: HCC-2998 colon
SF-295 CNS = test system: SF-295 CNS
KM20L2 colon = test system: KM20L2 colon
HOP-92 NSCLC = test system: HOP-92 NSCLC
MOLT-4 leukemia = test system: MOLT-4 leukemia
SK-MEL-28 melanoma = test system: SK-MEL-28 melanoma
XF 498 CNS = test system: XF 498 CNS
UACC-257 melanoma = test system: UACC-257 melanoma
HCT-116 colon = test system: HCT-116 colon
OVCAR-8 ovarian = test system: OVCAR-8 ovarian
A498 renal = test system: A498 renal
786-0 renal = test system: 786-0 renal
HOP-18 NSCLC = test system: HOP-18 NSCLC
HT29 colon = test system: HT29 colon
UACC-62 melanoma = test system: UACC-62 melanoma
CAKI-1 renal = test system: CAKI-1 renal
M14 melanoma = test system: M14 melanoma
HCT-15 colon = test system: HCT-15 colon
NCI-H226 lung = test system: NCI-H226 lung
OVCAR-4 ovarian = test system: OVCAR-4 ovarian
SN12C renal = test system: SN12C renal

Measured: TGI

CCOC(=O)C1(C(=O)OCC)OC(=O)NC2=C1CCCC2
not listed: UACC-62 melanoma | CAKI-1 renal | M14 melanoma | HCT-15 colon | NCI-H226 lung | OVCAR-4 ovarian | SN12C renal
> 100 µM: all other assays above

CC1=Nn2c(nnc2-c2ccc(Cl)cc2)NC(C)(C)C1
not listed: SNB-75 CNS | RXF 393 renal | HCT-116 colon | OVCAR-8 ovarian | SN12C renal
> 100 µM: all other assays above

Cn1nc(N)nc1N=S(C)(C)=N
not listed: DLD-1 colon | LOX IMVI melanoma | M19-MEL melanoma | HCT-116 colon
> 100 µM: all other assays above
